Data from paper PMC6680845, “Screening and Evaluation of Xanthine Oxidase Inhibitors from Gnetum parvifolium in China” (Molecules, 2019).

How the values were obtained:
xanthine oxidase (XO) = xanthine oxidase (XO) (Bos taurus, UniProt P80457); assay: XO inhibition type and kinetics (Lineweaver-Burk and secondary plots); format: biochemical; conditions: for mode of XO inhibition: Lineweaver-Burk plots
Protocol: In order to further exploring the inhibitory activities of four inhibitors, the inhibition type and inhibition kinetics constants were assayed.
For inhibition test, 20 μL of XO solution (1 mg/mL in buffers) and 1 mL of sample with different concentrations were mixed in a quartz cuvette. Then, 1 mL of […] (1 mg/mL) was added to start reaction and the increase of absorbance at 295 nm in 100 s was recorded by an UV-Vis Spectrophotometer (UV2700, Shimadzu, Kyoto, Japan). […] All experiments were performed in triplicate. The inhibition of XO was calculated by the following formula. Inhibition% = (1 − ΔAs/ΔA0) × 100 (1) where ΔAs and ΔA0 are the changes of absorbance for sample and blank, respectively.

[1] = DPPH free radical scavenging test; conditions: DPPH 0.1 mM in methanol, 30 min in dark, 517 nm
Protocol: The DPPH and ABTS· radical scavenging tests were measured according to the reported method with some modifications. For DPPH test, 0.5 mL of sample with different concentrations were mixed thoroughly with 2 mL of DPPH solution (0.1 mM in methanol). The mixture was then kept in dark for 30 min. Finally, the absorbance of solution was measured by an UV-Vis Spectrophotometer (UV2700, Shimadzu, Kyoto, Japan) at 517 nm.
(§1) For ABTS test, ABTS solution (2 mL of ABTS stock solution (0.01 M) added to 58 mL phosphate buffers, pH 7.0) was incubated for 12 h and diluted with methanol for use. Then, 0.5 mL of samples with different concentrations were mixed thoroughly with 2 mL of ABTS solution. The mixture was kept in dark for 30 min, and the absorbance at 734 nm was measured by an UV-Vis Spectrophotometer. The same amount of water was used as control instead of sample. All experiments were performed in triplicate. The scavenging activity of DPPH and ABTS· radicals was calculated by the following formula: Radical scavenging rate% = 1 − As/A0 × 100 (2) where A0 was the absorbance of control and As was the absorbance of sample.

[2] = ABTS radical scavenging test; conditions: 30 min in dark, 734 nm
Protocol: as §1

Sequence of xanthine oxidase (XO) (P80457 2-1332): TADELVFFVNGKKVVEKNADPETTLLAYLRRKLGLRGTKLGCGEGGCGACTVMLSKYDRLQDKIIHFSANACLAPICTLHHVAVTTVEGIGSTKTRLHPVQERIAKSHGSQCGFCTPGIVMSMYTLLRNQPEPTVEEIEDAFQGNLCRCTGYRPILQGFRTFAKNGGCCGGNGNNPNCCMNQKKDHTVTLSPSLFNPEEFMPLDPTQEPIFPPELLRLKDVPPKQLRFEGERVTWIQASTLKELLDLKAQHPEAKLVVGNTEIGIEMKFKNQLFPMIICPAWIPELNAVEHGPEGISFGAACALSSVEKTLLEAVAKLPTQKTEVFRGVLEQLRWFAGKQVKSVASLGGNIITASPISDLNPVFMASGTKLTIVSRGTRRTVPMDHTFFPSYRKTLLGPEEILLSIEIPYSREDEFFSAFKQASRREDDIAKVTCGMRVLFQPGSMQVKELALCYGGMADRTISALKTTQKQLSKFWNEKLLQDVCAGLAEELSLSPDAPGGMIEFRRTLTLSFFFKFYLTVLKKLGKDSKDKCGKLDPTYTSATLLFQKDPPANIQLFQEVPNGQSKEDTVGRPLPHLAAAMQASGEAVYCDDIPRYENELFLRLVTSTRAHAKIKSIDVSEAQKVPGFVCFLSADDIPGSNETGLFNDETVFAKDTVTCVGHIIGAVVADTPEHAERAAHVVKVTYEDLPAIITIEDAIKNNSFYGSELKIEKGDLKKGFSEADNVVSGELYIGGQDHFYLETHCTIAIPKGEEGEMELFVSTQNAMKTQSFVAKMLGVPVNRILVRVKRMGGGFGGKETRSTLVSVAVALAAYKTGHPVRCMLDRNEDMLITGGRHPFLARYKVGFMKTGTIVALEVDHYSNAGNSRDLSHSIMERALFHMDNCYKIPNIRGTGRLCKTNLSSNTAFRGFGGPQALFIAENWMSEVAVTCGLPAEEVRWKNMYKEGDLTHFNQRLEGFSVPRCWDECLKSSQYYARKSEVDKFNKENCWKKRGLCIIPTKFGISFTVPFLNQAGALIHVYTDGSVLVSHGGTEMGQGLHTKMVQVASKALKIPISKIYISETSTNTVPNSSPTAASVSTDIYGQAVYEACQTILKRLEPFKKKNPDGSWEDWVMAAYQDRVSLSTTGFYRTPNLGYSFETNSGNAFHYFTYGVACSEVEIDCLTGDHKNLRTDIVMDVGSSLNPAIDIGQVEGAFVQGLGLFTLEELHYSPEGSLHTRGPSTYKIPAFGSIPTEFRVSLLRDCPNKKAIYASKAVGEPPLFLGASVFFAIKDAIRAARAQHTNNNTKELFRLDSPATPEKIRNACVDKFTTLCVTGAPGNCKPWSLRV

## COc1cc(/C=C/c2cc(O)cc(O)c2)ccc1O [Isorhapontigenin]
Xanthine oxidase (XO)
  mode of XO inhibition: uncompetitive type
Xanthine oxidase (XO); inhibitor [C] 2.6 μM
  Vmax: 0.168 mmol/min
Xanthine oxidase (XO); inhibitor [C] 3.9 μM
  Vmax: 0.134 mmol/min
Xanthine oxidase (XO); inhibitor [C] 5.3 μM
  Vmax: 0.061 mmol/min
[1]
  EC50: 1450 µM
[2]
  EC50: 300 µM

## Oc1cc(O)cc(/C=C/c2ccc(O)c(O)c2)c1 [Piceatannol]
Xanthine oxidase (XO)
  mode of XO inhibition: competitive type
Xanthine oxidase (XO); inhibitor [C] 3.3 μM
  Vmax: 0.160 mmol/min
Xanthine oxidase (XO); inhibitor [C] 4.9 μM
  Vmax: 0.164 mmol/min
Xanthine oxidase (XO); inhibitor [C] 6.6 μM
  Vmax: 0.157 mmol/min
[1]
  EC50: 40 µM

## Oc1ccc(/C=C/c2cc(O)cc(O)c2)cc1 [Resveratrol]
Xanthine oxidase (XO)
  mode of XO inhibition: uncompetitive type
Xanthine oxidase (XO); inhibitor [C] 3.3 μM
  Vmax: 0.173 mmol/min
Xanthine oxidase (XO); inhibitor [C] 4.9 μM
  Vmax: 0.106 mmol/min
Xanthine oxidase (XO); inhibitor [C] 6.6 μM
  Vmax: 0.088 mmol/min
